Measured values as given in PMC11251039, “Harnessing cholesterol uptake of malaria parasites for therapeutic applications” (EMBO Molecular Medicine, 2024).
Where “and” joins values, the source holds several entries; their conditions need not be identical. Identical values can stand only once. Like-named read-outs stand apart in the source and are kept apart here.

What was measured:
[1] = test system: asexual P. falciparum 3D7 wild-type parasites; test: P. falciparum asexual growth inhibition assay (SYBR Safe DNA replication); format: cell-based, Plasmodium falciparum; details: for P. falciparum asexual growth, percentage of control: replicate values, source data Fig. 2B; for IC90 / IC50: Plasmodium falciparum; for IC50: read-out: IC50, P. falciparum asexual growth inhibition
Procedure, shortened: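 Sorbitol-synchronised ring-stage cultures at 1% parasitaemia and 1% haematocrit were exposed to 2-fold compound dilutions at 37 °C under microaerophilic conditions for 24, 48 or 72 h. Growth was read by SYBR Safe fluorescence of freeze-thaw lysates, with 200 nM chloroquine or artesunate defining background.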

[2] = test system: human foreskin fibroblasts (HFF); test: Human foreskin fibroblast growth inhibition assay (SYBR Safe); format: cell-based; details: 72 h; for IC50: Homo sapiens, Fibroblast, read-out: IC50, human fibroblast growth inhibition
Description: HFF cell growth inhibition assays commenced by adding 5000 cells to each well of a 96-well plate. 10 µg/mL cycloheximide was used as a no-growth control. DNA replication (indicating growth) was measured at the specified time using SYBR Safe DNA Gel Stain (Invitrogen 33102) and a fluorescence microplate reader. […]
Human Foreskin Fibroblast Growth Inhibition Assays:
The HFF cell line was maintained under routine culture conditions in DMEM containing 3.7 g/L NaHCO3 supplemented with 10% v/v newborn calf serum (NCS), 50 units/mL penicillin, 50 μg/mL streptomycin, 10 μg/mL gentamicin, 0.25 μg/mL amphotericin B, and 0.2 mM L-glutamine at 37 °C in a humidified 5% CO2 incubator. […]
HFF cells were detached from a flask using 0.25% Trypsin with 0.2 g/L EDTA (Sigma T4049) and washed with culture media. Cells were incubated with a serial dilution of each compound, or media/DMSO alone. Cycloheximide at 10 µg/mL was used as a positive control to determine background fluorescence. Approximately 5 000 cells were seeded in each well. Plates were incubated at 37 °C for 72 hours (until reaching confluency) and the media was removed. Plates were transferred to a -18 °C freezer. Plates were thawed and SYBR Safe DNA Gel Stain (final concentration 1/10,000) diluted in lysis buffer (as above) was added. Fluorescence was read at 490 nm excitation/ 520 nm emission on a FLUOstar Optima fluorescence plate reader. […]

[3] = test system: Toxoplasma gondii tachyzoites (RH strain); test: Toxoplasma growth inhibition assay (tdTomato fluorescence, in HFF cells); format: cell-based
Description: Fluorescence was measured daily with a fluorescence microplate reader for one week, and the background fluorescence from the time 0 reading was subtracted from all other measurements. […]
Toxoplasma Growth Inhibition Assays:
Growth inhibition was investigated as described previously (26). Fluorescent Toxoplasma gondii parasites were inoculated into an optical bottom 96-well plate containing confluent human foreskin fibroblast (HFF) host cells at a density of 2,000 parasites/well, with a serial dilution of each compound, or culture media/DMSO (0.1% v/v) alone. Plates were measured daily with a FluoStar Optima fluorescence plate reader at 540 nm excitation and 590 nm emission for one week, and the background fluorescence from the time 0 reading was subtracted from all other measurements. […]

[4] = test system: human embryonic kidney cells (HEK293); test: Human embryonic kidney cell viability assay (MTT); format: cell-based; details: Homo sapiens, read-out: IC50, human embryonic kidney cell inhibition (viability)
Description: HEK293 cell viability assays commenced with 5000 cells per well. 10 µg/mL cycloheximide was used as a no-growth control. Metabolic capacity (indicating viability) was measured in an absorbance microplate reader after incubation with 0.45 mg/mL methylthiazolyldiphenyl-tetrazolium bromide (MTT; Sigma M2128) for 2 h followed by crystal solubilisation in SDS. […]
Human Embryonic Kidney Cell Viability Assays:
Human Embryonic Kidney Cell (HEK293) culture:
The HEK293 cell line was maintained under routine culture conditions in DMEM containing 3.7 g/L NaHCO3 supplemented with 10% FBS, 200 μM glutamine, 100 units/mL penicillin, and 100 μg/mL streptomycin at 37 °C in a humidified 5% CO2 incubator.
Cells were detached from a flask using 0.25% Trypsin with 0.2 g/L EDTA (Sigma T4049) and washed with culture media containing no phenol red. Cells were incubated with a serial dilution of each compound, or media/DMSO alone. The protein synthesis inhibitor cycloheximide (Sigma 01810) at 10 µg/mL was used as a positive control to determine background absorbance. 5,000 cells were seeded in each well. After 96 hours, 0.45 mg/mL methylthiazolyldiphenyl-tetrazolium bromide (MTT; Sigma M2128) was added and incubated for a further two hours, before mixing 1.1:1 with 10% w/v sodium dodecyl sulfate (SDS) to solubilise crystals and freezing the plate at -18 °C to stop the assay. […]

[5] = Toxoplasma gondii, HFF, 72 h, read-out: IC50, T. gondii tachyzoite growth inhibition
[6] = 3D7, 24 h, starting at ring stages

COc1cc(NC(C)CCCNC(=O)CCC(=O)O[C@H]2CC[C@H]3[C@@H]4CC=C5C[C@@H](O)CC[C@]5(C)[C@H]4CC[C@]23C)c2ncccc2c1 (stereo partly shown) [C-17-PQ]
Fold lower IC50 than primaquine alone [1]: ~ 4 fold | P. falciparum asexual growth, percentage of control ([1]; 0.154296880 uM, 24 h, listed as BC5B): 115.9% and 112.2% and 101.3% and 107.1% and 95.84% and 88.53% and 98.99% and 116.6% and 76.11% | P. falciparum asexual growth, percentage of control ([1]; 0.308593750 uM, 24 h, listed as BC5B): 125.5% and 115.5% and 91.68% and 117.9% and 88.81% and 84.79% and 114.9% and 109.1% and 95.02% | P. falciparum asexual growth, percentage of control ([1]; 0.617187500 uM, 24 h, listed as BC5B): 131.7% and 113.6% and 103% and 85.01% and 97.93% and 83.36% and 109% and 162.3% and 97.26% | P. falciparum asexual growth, percentage of control ([1]; 1.234375000 uM, 24 h, listed as BC5B): 120.1% and 114.6% and 99.7% and 107.3% and 77.37% and 93.38% and 101.7% and 96.22% and 102.4% | P. falciparum asexual growth, percentage of control ([1]; 2.468750000 uM, 24 h, listed as BC5B): 89.52% and 83.68% and 69.39% and 87.34% and 56.13% and 47.54% and 76.36% and 68.29% and 79.29% | P. falciparum asexual growth, percentage of control ([1]; 4.937500000 uM, 24 h, listed as BC5B): 14.72% and 24.05% and 6.418% and 5.536% and -2.79% and -3.361% and 18.05% and 30.2% and 18.39% | P. falciparum asexual growth, percentage of control ([1]; 9.875000000 uM, 24 h, listed as BC5B): 13.15% and 2.413% and -18.71% and -3.317% and -20.54% and -27.66% and -1.156% and -7.164% and -20.57% | P. falciparum asexual growth, percentage of control ([1]; 19.750000000 uM, 24 h, listed as BC5B): -9.926% and -19.32% and -11.56% and 3.097% and -3.493% and -18.72% and 17.43% and -16.64% and -32.93% | Fold difference in IC90 to primaquine ([1]; 24 h): ~ 8 fold | Hill slope of inhibitory curve ([1]; 24 h): −4.56 | Hill slope of inhibitory curve ([1]; 72 h): −4.20 | IC90 ([1]; 3D7, 24 h): 5 µM | IC50 ([1]; 3D7, 24 h, 24 h, starting at ring stages): 3.1 µM | IC50 ([1]; 3D7, 48 h, 48 h): 3 µM | IC90 ([1]; 3D7, 72 h): 4 µM | IC50 ([1]; 3D7, 72 h, 72 h): 2.4 µM | Maximal inhibition of fibroblast growth at the range of concentrations tested ([2]; HFF): ≤ 30% | IC50 [2]: > 290 µM | Fold difference in IC50 to primaquine ([3]; 72 h; listed as steroid-primaquine conjugate): ~ 3.5 fold and 3 fold | IC50 [3, 5]: 2.8 µM | IC50 ([4]; 96 h, HEK293): > 50 µM

COc1cc(NC(C)CCCN)c2ncccc2c1 (stereo not shown) [Primaquine, primaquine, reference compound]
P. falciparum asexual growth, percentage of control ([1]; 0.048828130 uM, 24 h): 103.5% and 112.3% and 122.3% and 109.6% and 103.8% and 107.6% | P. falciparum asexual growth, percentage of control ([1]; 0.097656250 uM, 24 h): 133.8% and 115.8% and 109.7% and 98.88% and 101.1% and 114.9% | P. falciparum asexual growth, percentage of control ([1]; 0.195312500 uM, 24 h): 92.88% and 92.1% and 75.42% and 87.41% and 53.27% and 109.2% and 104.7% and 89.49% | P. falciparum asexual growth, percentage of control ([1]; 0.390625000 uM, 24 h): 101% and 92.22% and 85.08% and 86.3% and 91.98% and 87.62% and 106.4% and 103.7% and 80.96% | P. falciparum asexual growth, percentage of control ([1]; 0.781250000 uM, 24 h): 87.28% and 86.95% and 87.11% and 97.7% and 104.2% and 88.59% and 104.3% and 96.91% and 94.25% | P. falciparum asexual growth, percentage of control ([1]; 1.562500000 uM, 24 h): 104.9% and 96.53% and 90.19% and 106.5% and 37.96% and 92.95% and 112.9% and 86.68% and 94.95% | P. falciparum asexual growth, percentage of control ([1]; 3.125000000 uM, 24 h): 98.46% and 91.72% and 71.7% and 85.23% and 66.97% and 105.3% and 93.44% and 88.46% and 77.37% | P. falciparum asexual growth, percentage of control ([1]; 6.250000000 uM, 24 h): 70.33% and 75.07% and 74.44% and 55.89% and 62.38% and 52.2% and 93.44% and 79.9% and 76.14% | P. falciparum asexual growth, percentage of control ([1]; 12.500000000 uM, 24 h): 59.74% and 51.28% and 54.52% and 22.36% and 27.69% and 24.85% and 101.7% and 67.6% and 71.11% | P. falciparum asexual growth, percentage of control ([1]; 25.000000000 uM, 24 h): 32.29% and 12.73% and 20.21% and 8.779% and -12.09% and 0.142% and 58.69% and 51.9% and 34.08% | P. falciparum asexual growth, percentage of control ([1]; 50.000000000 uM, 24 h): 4.003% and -4.24% and -21.02% and -13.23% and -31.85% and -34.48% and 21.18% and 8.951% and 16.84% | IC90 ([1]; 3D7, 24 h): 41 µM | IC50 ([1]; 3D7, 48 h): 6.5 µM | IC90 ([1]; 3D7, 72 h): 11.4 µM | IC50 ([1]; 3D7, 72 h): 2.6 µM | IC50 [1, 6]: 11.5 µM | IC50 ([2]; HFF): 41.8 µM | IC50 [3, 5]: 9.7 µM | IC50 ([4]; HEK293, 96 h): 10.6 µM

COc1cc(NC(C)CCCNC(=O)CCC(=O)OC(C)C)c2ncccc2c1 (stereo not shown) [PQ-link]
P. falciparum asexual growth, percentage of control ([1]; 0.390625000 uM, 24 h, listed as BC9B): 112.3% and 89.93% and 91.19% and 112.1% and 102.3% and 68.21% and 112.6% and 108.2% and 99.03% | P. falciparum asexual growth, percentage of control ([1]; 0.781250000 uM, 24 h, listed as BC9B): 111.4% and 122.1% and 101.9% and 105.4% and 82.4% and 103% and 111.6% and 99.14% and 89.9% | P. falciparum asexual growth, percentage of control ([1]; 1.562500000 uM, 24 h, listed as BC9B): 124.5% and 109.9% and 95.57% and 96.52% and 118.5% and 100.1% and 113.4% and 107.6% and 105.7% | P. falciparum asexual growth, percentage of control ([1]; 3.125000000 uM, 24 h, listed as BC9B): 111% and 101.9% and 103% and 119.5% and 108.6% and 102.2% and 109.1% and 102.4% and 93.98% | P. falciparum asexual growth, percentage of control ([1]; 6.250000000 uM, 24 h, listed as BC9B): 79.77% and 100.5% and 104.2% and 100.4% and 95.65% and 80.04% and 97.39% and 93.98% and 89.23% | P. falciparum asexual growth, percentage of control ([1]; 12.500000000 uM, 24 h, listed as BC9B): 91.36% and 89.64% and 70.76% and 87.57% and 76.11% and 68.83% and 96.23% and 85.41% and 71.02% | P. falciparum asexual growth, percentage of control ([1]; 25.000000000 uM, 24 h, listed as BC9B): 68.25% and 69.29% and 40.14% and 53.66% and 42.59% and 27.83% and 74.48% and 57.35% and 79.45% | P. falciparum asexual growth, percentage of control ([1]; 50.000000000 uM, 24 h, listed as BC9B): 54.3% and 2.851% and -9.844% and -3.605% and -29.04% and -23.19% and 22.95% and 7.441% and 8.158% | IC50 ([1]; 3D7, 48 h): 21.9 µM | IC50 ([1]; 3D7, 72 h): 16.1 µM | IC50 [1, 6]: 25.2 µM | IC50 ([2]; HFF): 98.2 µM | IC50 ([3]; Toxoplasma gondii, HFF, 72 h; read-out: IC50, T. gondii tachyzoite growth inhibition): 27.1 µM | IC50 ([4]; 96 h, HEK293): 13.3 µM
